Laboratory results taken from patent US20240315991A1, “USES OF HNF4 ALPHA AGONISTS” (Sanford Burnham Prebys Medical Discovery Institute, priority 2023, published 2024).
Entries after “also recorded” stand apart in the source; their conditions may differ.

How the values were obtained:
IL-6 protein = experiment: ELISA of culture media of primary human hepatocytes, IL-6; format: cell-based; conditions: HEP-fat media, NCT 5, 15, and 40 μM, FIG. 5D
Method: (§1) Primary human hepatocytes. Experiments with primary human hepatocytes were performed by CN-Bio (Cambridge, UK). Briefly, primary human hepatocytes (PHHs), human Kupffer cells (HKs) and human stellate cells (HSCs) were seeded onto CN-Bio's PhysioMimix LC12 MPS culture plates at 6×10^5 cells for PHHs and 6×10^4 cells for HKs and HSCs in 1.6 ml of CN-Bio's HEP-lean media with 5% FCS. Throughout the experiment the cells were maintained at a flow rate of 1 μl/s. After 24 hours (Day 1) of seeding, the media was changed to HEP-lean media and the cells were incubated until day 4 to allow the cells to form microtissues. At day 4 post seeding, media was changed to HEP-fat media and treated with DMSO or NCT (5, 15, and 40 μM). Media was replaced on days 6 and 8. Cells were harvested on day 10 for RNA extraction and culture media was collected for ELISA analysis.

nitric oxide (NO) = experiment: Nitric oxide assay in mouse liver; format: in vivo; conditions: HFD+NCT vs HFD, FIG. 5G
Method: (§2) NCT oral administration. Four-week-old male C57BL/6J (JAX cat #000664) mice were purchased from Jackson laboratory and were maintained in a 12 h light/dark cycle throughout the experiment. Prior to the experiments, mice were acclimated for 2 weeks. Six-week-old mice with similar body weights were randomized to a normal diet (NC), a high fat diet (HFD) (Research Diets, cat #D12492 60 kcal % fat) or HFD containing 4000 ppm NCT (HFD+NCT) (Research Diets, 60 kcal % fat+4000 ppm NCT), which was calculated to provide approximately 400 mg/kg/d NCT. HFD chow containing NCT was made with gray dye to distinguish it from regular HFD chow that had green dye. Mice for each treatment group were placed in separate cages. Equal amounts of fresh chow were provided every week to all mice. Body weight gain and food intake were measured every week for 10 weeks. After 10 weeks of chow treatment, mice were sacrificed for analysis. […]
T6PNE cells were maintained in RPMI (5.5 mM glucose, Corning) supplemented with 10% fetal bovine serum (FBS, Sigma-Aldrich) and 1% penicillin-streptomycin (pen-strep, Gibco) in 5% CO2 at 37° C. […] NO was measured with the QuantiChrom Nitric Oxide Assay kit (D2NO-100, BioAssay Systems). […] Samples and standard from kit were incubated with reagents for 20 min at 60° C. and measured OD 540 nm.

IL-6 mRNA [1] = experiment: RT-PCR of mouse liver, IL-6; format: in vivo; conditions: HFD+NCT vs HFD, FIG. 5A
Method: as §2
(§3) RT-PCR. […] Quantitative real time PCR (RT-PCR) analysis was performed using SYBR® Select Master Mix (Applied Biosystems) and an ABI 7900HT thermal cycler (Applied Biosystems, Thermo Fisher Scientific). Ct values were normalized to 18s rRNA and are expressed as fold change over samples from mice fed NC or cultured human hepatocytes without NCT.

cytochrome C mRNA = experiment: RT-PCR of mouse liver, cytochrome C; format: in vivo; conditions: HFD vs. HFD+NCT, FIG. 3G
Method: as §2, §3

IL-6 mRNA [2] = experiment: RT-PCR of primary human hepatocytes, IL-6; format: cell-based; conditions: HEP-fat media, NCT 5, 15, and 40 μM, FIG. 5E
Method: as §1, §3

SDHA = experiment: Western blotting of liver, SDHA; format: in vivo, mouse; conditions: HFD+NCT vs HFD, FIGS. 3D-3F
Method: (§4) NCT oral administration. Four-week-old male C57BL/6J (JAX cat #000664) mice were purchased from Jackson laboratory and were maintained in a 12 h light/dark cycle throughout the experiment. Prior to the experiments, mice were acclimated for 2 weeks. Six-week-old mice with similar body weights were randomized to a normal diet (NC), a high fat diet (HFD) (Research Diets, cat #D12492 60 kcal % fat) or HFD containing 4000 ppm NCT (HFD+NCT) (Research Diets, 60 kcal % fat+4000 ppm NCT), which was calculated to provide approximately 400 mg/kg/d NCT. HFD chow containing NCT was made with gray dye to distinguish it from regular HFD chow that had green dye. Mice for each treatment group were placed in separate cages. Equal amounts of fresh chow were provided every week to all mice. Body weight gain and food intake were measured every week for 10 weeks. After 10 weeks of chow treatment, mice were sacrificed for analysis. All animal experiments were approved by the Institutional Animal Care and Use Committee (IACUC) of the Sanford Burnham Prebys Medical Discovery Institute in accordance with national regulations. Sample size was chosen based on the prior study of NCT delivered by IP injection.
Western blotting. Mouse liver extracts were prepared by incubation in RIPA buffer (Invitrogen) containing protease inhibitors (Calbiochem, SanDiego, CA). Protein was quantified by BCA assay (Thermo Scientific). […]

[3] = system: total cellular nicotinamide adenine dinucleotide (NAD); experiment: Nicotinamide adenine dinucleotide assay in liver lysate; format: in vivo, mouse; conditions: HFD+NCT vs HFD, 10 weeks
Method: as §4
Nicotinamide adenine dinucleotide assay. Total NAD level in liver lysate was analyzed according to manufacturer's instructions using a calorimetric NAD+/NADH assay kit (Cat #MET-5014, Cell Biolabs, Inc. USA). […]

HNF4α = molecular target: T1, HNF4α (Homo sapiens, UniProt P41235); conditions: cited from earlier work
T1 sequence (P41235 1-474): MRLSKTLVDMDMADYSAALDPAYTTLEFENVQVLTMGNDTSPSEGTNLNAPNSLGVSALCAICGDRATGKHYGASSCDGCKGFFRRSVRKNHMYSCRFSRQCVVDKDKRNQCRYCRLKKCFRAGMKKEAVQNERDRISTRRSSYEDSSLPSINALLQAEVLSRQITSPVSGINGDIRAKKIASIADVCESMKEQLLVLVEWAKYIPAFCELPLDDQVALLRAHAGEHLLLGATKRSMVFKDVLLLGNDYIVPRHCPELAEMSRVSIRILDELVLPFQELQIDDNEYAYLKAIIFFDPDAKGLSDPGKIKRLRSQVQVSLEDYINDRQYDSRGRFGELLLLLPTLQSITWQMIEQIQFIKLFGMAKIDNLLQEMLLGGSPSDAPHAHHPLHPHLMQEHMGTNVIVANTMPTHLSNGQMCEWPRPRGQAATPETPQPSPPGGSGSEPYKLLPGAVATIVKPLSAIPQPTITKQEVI

O=C(/C=C/c1ccc(O)c(O)c1)NCCc1ccc(O)cc1 [NCT, N-trans caffeoyltyramine]
IL-6 protein level secreted by cultured human hepatocytes (IL-6 protein): decrease
level of NO in the livers of mice fed on HFD (nitric oxide (NO)): decrease
IL-6 level in livers of mice on HFD (IL-6 mRNA [1]): decreased
IL-6 level in livers of mice on HFD (IL-6 mRNA [1]; listed as Compound A): decrease
cytochrome C mRNA levels in mouse livers (cytochrome C mRNA): non-significant
IL-6 mRNA level in cultured human hepatocytes (IL-6 mRNA [2]): decrease
SDHA protein level in liver (SDHA): reverse the depression
total cellular NAD in liver [3]: increased; also recorded: substantial increase
specificity for HNF4α (HNF4α; HNF4α siRNA ablates their effect): exhibit specificity for HNF4α
activation of HNF4α, potency compared with Alverine and Benfluorex (HNF4α): much more potent activators
